Test results: ChEMBL document CHEMBL1201862, “PubChem BioAssay data set” (2004)
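How tested: cells in 96-well plates exposed to compound for 48 hours at five concentrations. GI50: concentration for 50% inhibition of growth.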 Active and inactive are the calls of the source. Cut-off read from the data, not from the text of the source: active = GI50 up to about 1.1 µM and inactive = higher.

What was measured:
Experiment in all cases: NCI anticancer screen, dose series, 48 h
[1] = system: 786-0
[2] = system: K562
[3] = system: HOP-92
[4] = system: OVCAR-4
[5] = system: MCF7
[6] = system: CAKI-1
[7] = system: SK-MEL-5
[8] = system: SK-OV-3
[9] = system: HCT-15
[10] = system: HT-29
[11] = system: U-251
[12] = system: MOLT-4
[13] = system: SF-539
[14] = system: ACHN
[15] = system: SK-MEL-28
[16] = system: SR
[17] = system: HCT-116
[18] = system: A549
[19] = system: HOP-62

| Structure (SMILES) | GI50 [1] | GI50 [2] | GI50 [3] | GI50 [4] | GI50 [5] | GI50 [6] | GI50 [7] | GI50 [8] | GI50 [9] [µM] | GI50 [10] | GI50 [11] | GI50 [12] | GI50 [13] | GI50 [14] | GI50 [15] | GI50 [16] | GI50 [17] | GI50 [18] | GI50 [19] |
| --- | --- | --- | --- | --- | --- | --- | --- | --- | --- | --- | --- | --- | --- | --- | --- | --- | --- | --- | --- |
| CCOC(=O)C#Cc1ccc([N+](=O)[O-])cc1 | 1.55 µM (inactive) | 2.07 µM (inactive) | 1.8 µM (inactive) | 11.2 µM (inactive) | 1.24 µM (inactive) | 1.87 µM (inactive) | 2.67 µM (inactive) | 12.7 µM (inactive) | 1.82 | 1.53 µM (inactive) | 1.64 µM (inactive) | 1.73 µM (inactive) | 2.06 µM (inactive) | 3.21 µM (inactive) | 5.52 µM (inactive) | 1.77 µM (inactive) | 1.66 µM (inactive) | 10.4 µM (inactive) | 3.24 µM (inactive) |
| COc1cc(/C=C2\N=C(c3ccccc3)N(c3nc4cc(C)c(C)cc4s3)C2=O)cc(OC)c1OC | 27.6 µM (inactive) | 35.4 µM (inactive) | 13 µM (inactive) | 21.3 µM (inactive) | 18.5 µM (inactive) | 35.1 µM (inactive) | 21.2 µM (inactive) | 27.7 µM (inactive) | 30.3 | 19 µM (inactive) | 21.8 µM (inactive) | 3.31 µM (inactive) | 21.7 µM (inactive) | 27 µM (inactive) | 62.2 µM (inactive) | 18.4 µM (inactive) | 20.2 µM (inactive) | 30.1 µM (inactive) | 19.9 µM (inactive) |
| CCOC(=O)C(=O)/C(=C\NC(=S)Nc1ccccc1Cl)C(=O)OCC | > 100 µM (inactive) | > 100 µM (inactive) | 3.59 µM (inactive) | > 100 µM (inactive) | > 100 µM (inactive) | > 100 µM (inactive) | > 100 µM (inactive) | > 100 µM (inactive) | > 100 | > 100 µM (inactive) | > 100 µM (inactive) | > 100 µM (inactive) | > 100 µM (inactive) | > 100 µM (inactive) | > 100 µM (inactive) | > 100 µM (inactive) | > 100 µM (inactive) | > 100 µM (inactive) | > 100 µM (inactive) |
| O=C1/C(=C/c2ccc(O)cc2)Oc2ccccc21 | > 100 µM (inactive) | 40.9 µM (inactive) | > 100 µM (inactive) | 72.6 µM (inactive) | > 100 µM (inactive) | > 100 µM (inactive) | > 100 µM (inactive) | > 100 µM (inactive) | > 100 | > 100 µM (inactive) | > 100 µM (inactive) | 44.9 µM (inactive) | > 100 µM (inactive) | > 100 µM (inactive) | > 100 µM (inactive) | 47.6 µM (inactive) | 98.4 µM (inactive) | > 100 µM (inactive) | > 100 µM (inactive) |
| Fc1ccc(/N=C/C=C/Nc2ccc(F)cc2)cc1 | 4.3 µM (inactive) | 0.278 µM (active) | 17.6 µM (inactive) | 15.3 µM (inactive) | 11.7 µM (inactive) | 12.7 µM (inactive) | 4.84 µM (inactive) | 15.3 µM (inactive) | 0.31 | 5.35 µM (inactive) | 7.41 µM (inactive) | 12.9 µM (inactive) | 14.1 µM (inactive) | 0.11 µM (active) | 7.5 µM (inactive) | 2.44 µM (inactive) | 3 µM (inactive) | 8.67 µM (inactive) | 17.7 µM (inactive) |
| CN(C)c1ccc(/C=N/NC(=S)Nc2ccccc2)cc1 | > 100 µM (inactive) | > 100 µM (inactive) | > 100 µM (inactive) | > 100 µM (inactive) | > 100 µM (inactive) | > 100 µM (inactive) | > 100 µM (inactive) | > 100 µM (inactive) | > 100 | > 100 µM (inactive) | > 100 µM (inactive) | > 100 µM (inactive) | > 100 µM (inactive) | > 100 µM (inactive) | > 100 µM (inactive) | > 100 µM (inactive) | > 100 µM (inactive) | > 100 µM (inactive) | 96.4 µM (inactive) |
| C=CCSS/C=C/C[S+]([O-])CC=C (configuration not stated) [AJOENE] | 18.3 µM (inactive) | 5.83 µM (inactive) | 48.3 µM (inactive) | > 54.8 µM (inactive) | 44.2 µM (inactive) | 26.9 µM (inactive) | 36.6 µM (inactive) | 64 µM (inactive) | 35.5 | 29.9 µM (inactive) | 60 µM (inactive) | 3.95 µM (inactive) | 25 µM (inactive) | 51.1 µM (inactive) | 20.7 µM (inactive) | 12.4 µM (inactive) | 13.1 µM (inactive) | 61 µM (inactive) | > 100 µM (inactive) |
| CC1=C(CO)C2=C(C)C3(CC3)[C@@](C)(O)C(=O)C2=C1 [IROFULVEN] | 0.199 µM (active) | 3.37 µM (inactive) | 0.309 µM (active) | 0.237 µM (active) | 0.242 µM (active) | 0.265 µM (active) | 0.161 µM (active) | 0.248 µM (active) | 0.29 | 0.234 µM (active) | 0.286 µM (active) | 0.785 µM (active) | 0.172 µM (active) | 0.262 µM (active) | 0.582 µM (active) | 0.792 µM (active) | 0.21 µM (active) | 0.113 µM (active) | 0.161 µM (active) |
